From paper PMC7070733 (Molecules, 2020)
In brackets after ≈: the same amount, converted by molar mass. Several values for one entry are separate records, joined by “and”; a condition that tells them apart may be missing. Equal entries are not always repeated. Entries after “also recorded” stand apart in the source; their conditions may differ.

Experiments:
C. perfringens NA = type: biochemical; conditions: for IC50 / IC50 NA-C. perfringens: MUNANA substrate; for IC50 NA-C. perfringens: nd = no detection
H1N1 NA = H1N1 NA (Influenza A virus, UniProt Q9IGQ6); assay: biochemical; type: biochemical
[1] = test system: influenza virus replication; design: method as in PMID 16137775; conditions: in vitro; cited from earlier work
[2] = test system: endonuclease activity of RNA polymerase in influenza A virus; design: method as in earlier work; conditions: ref 40 (Kuzuhara et al. 2009); cited from earlier work

H1N1 NA, sequence (Q9IGQ6 whole entry, looked up): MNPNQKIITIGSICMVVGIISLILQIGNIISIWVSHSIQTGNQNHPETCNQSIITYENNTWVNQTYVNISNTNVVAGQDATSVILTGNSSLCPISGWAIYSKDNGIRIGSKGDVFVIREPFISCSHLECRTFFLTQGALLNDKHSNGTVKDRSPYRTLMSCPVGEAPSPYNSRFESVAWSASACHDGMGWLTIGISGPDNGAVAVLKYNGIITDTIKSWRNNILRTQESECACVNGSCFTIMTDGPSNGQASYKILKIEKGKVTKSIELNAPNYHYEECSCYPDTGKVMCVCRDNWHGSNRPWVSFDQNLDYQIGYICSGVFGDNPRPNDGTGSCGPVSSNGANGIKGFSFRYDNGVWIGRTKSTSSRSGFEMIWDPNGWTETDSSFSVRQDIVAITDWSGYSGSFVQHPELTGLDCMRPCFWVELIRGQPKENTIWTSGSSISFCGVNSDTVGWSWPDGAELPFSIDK

Compound | activity against C. perfringens NA (in words) (C. perfringens NA) | activity against H1N1 NA (in words) (H1N1 NA) | IC50 (C. perfringens NA) [µM] | IC50 NA-C. perfringens (C. perfringens NA) | IC50 (H1N1 NA; IC50 H1N1 NA) [µM] | IC50 (H1N1 NA; IC50 NA-H1N1) [µM] | inhibition of influenza virus replication (in words) [1] | inhibition of endonuclease activity of RNA polymerase (in words) [2] | maximum inhibition against C. perfringens-NA (C. perfringens NA) [%] | melting point [°C]
C[C@H]1C(=O)CC[C@@H]2[C@]1(C)CC[C@H]1[C@@]2(C)CC[C@@]2(C)[C@@H]3CC(C)(C)CC[C@]3(C)CC[C@]12C [GC1, Friedeline] | not active | inactive |  |  |  |  |  |  |  | 
Oc1cc(O)c2c(c1)OC(c1ccc(O)c(O)c1)C(O)C2 (stereo not drawn) [GC4, catechin] | moderately active; also recorded: moderate activity | moderately active; also recorded: moderate activity | 60.3 | 17.48 µg/mL (≈ 60.2 µM) | 91 | 90.6 | good inhibition | inhibited |  | 
COC(=O)/C(C)=C/C(O)CC(C)C1(C)CC=C2C3CCC4C(C)(C)C(O)CCC4(C)C3(O)CCC21C (stereo not drawn) [GC2, Methyl (24E)-3a,9,23-trihydroxy-17,14-friedolanostan-14,24-dien-26-oate] | less active; also recorded: satisfactory inhibition | did not show any significant activity; also recorded: less active | 123 | 81.78 µg/mL and 81.72 µg/mL |  | 1920 |  |  | 79 | 130 to 135
CC(=O)N[C@H]1[C@H]([C@H](O)[C@H](O)CO)OC(C(=O)O)=C[C@@H]1O [DANA, 2,3-didehydro-2-deoxy-N-acetylneuraminic acid, reference compound] |  |  |  | 28.79 µg/mL (≈ 98.8 µM) |  |  |  |  |  | 
